This is an account of results in ChEMBL document CHEMBL1955751, “Structure-activity relationship of the 7-hydroxy benzimidazole analogs as glycogen synthase kinase 3β inhibitor” (Bioorg Med Chem Lett, 2012).

What is called pIC50 is −log10 of the IC50, conventionally taken in molar units. A higher pIC50 goes with a small IC50. One may read the pEC50 as −log10 of the EC50, conventionally taken in molar units.

Series [1] addresses T1, Inhibitor of nuclear factor kappa-B kinase subunit beta (Homo sapiens) (UniProt O14920).
T1 sequence (whole entry): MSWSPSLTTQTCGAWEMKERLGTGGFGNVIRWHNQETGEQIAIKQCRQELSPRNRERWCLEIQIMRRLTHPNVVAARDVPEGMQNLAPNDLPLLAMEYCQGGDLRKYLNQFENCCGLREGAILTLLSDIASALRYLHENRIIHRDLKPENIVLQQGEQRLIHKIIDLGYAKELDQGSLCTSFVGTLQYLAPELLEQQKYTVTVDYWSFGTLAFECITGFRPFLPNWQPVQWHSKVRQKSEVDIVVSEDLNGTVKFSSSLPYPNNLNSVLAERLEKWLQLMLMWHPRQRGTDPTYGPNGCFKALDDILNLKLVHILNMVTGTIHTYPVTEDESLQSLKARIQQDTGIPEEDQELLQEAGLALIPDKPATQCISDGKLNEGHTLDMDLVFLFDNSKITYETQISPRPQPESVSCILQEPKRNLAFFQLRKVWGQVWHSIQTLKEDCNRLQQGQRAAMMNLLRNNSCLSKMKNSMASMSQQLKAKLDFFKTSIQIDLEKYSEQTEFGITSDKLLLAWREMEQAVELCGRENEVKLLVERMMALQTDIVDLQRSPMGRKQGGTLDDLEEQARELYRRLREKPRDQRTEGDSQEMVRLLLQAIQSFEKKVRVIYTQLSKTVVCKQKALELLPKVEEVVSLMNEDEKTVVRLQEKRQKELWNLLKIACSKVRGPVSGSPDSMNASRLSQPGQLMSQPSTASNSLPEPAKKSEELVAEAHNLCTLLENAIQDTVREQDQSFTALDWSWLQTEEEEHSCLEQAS
Briefly: Inhibition of IKK-beta assessed as residual activity at 5 uM.

Series [2] has as its target Cyclin-dependent kinase 4 (Homo sapiens) (UniProt P11802). Briefly: Inhibition of CDK4 assessed as residual activity at 5 uM.
For series [3], the target named is Vascular endothelial growth factor receptor 2 (Homo sapiens) (UniProt P35968). Briefly: Inhibition of KDR assessed as residual activity at 5 uM.
Vascular endothelial growth factor receptor 2 (Homo sapiens), sequence (P35968 whole entry): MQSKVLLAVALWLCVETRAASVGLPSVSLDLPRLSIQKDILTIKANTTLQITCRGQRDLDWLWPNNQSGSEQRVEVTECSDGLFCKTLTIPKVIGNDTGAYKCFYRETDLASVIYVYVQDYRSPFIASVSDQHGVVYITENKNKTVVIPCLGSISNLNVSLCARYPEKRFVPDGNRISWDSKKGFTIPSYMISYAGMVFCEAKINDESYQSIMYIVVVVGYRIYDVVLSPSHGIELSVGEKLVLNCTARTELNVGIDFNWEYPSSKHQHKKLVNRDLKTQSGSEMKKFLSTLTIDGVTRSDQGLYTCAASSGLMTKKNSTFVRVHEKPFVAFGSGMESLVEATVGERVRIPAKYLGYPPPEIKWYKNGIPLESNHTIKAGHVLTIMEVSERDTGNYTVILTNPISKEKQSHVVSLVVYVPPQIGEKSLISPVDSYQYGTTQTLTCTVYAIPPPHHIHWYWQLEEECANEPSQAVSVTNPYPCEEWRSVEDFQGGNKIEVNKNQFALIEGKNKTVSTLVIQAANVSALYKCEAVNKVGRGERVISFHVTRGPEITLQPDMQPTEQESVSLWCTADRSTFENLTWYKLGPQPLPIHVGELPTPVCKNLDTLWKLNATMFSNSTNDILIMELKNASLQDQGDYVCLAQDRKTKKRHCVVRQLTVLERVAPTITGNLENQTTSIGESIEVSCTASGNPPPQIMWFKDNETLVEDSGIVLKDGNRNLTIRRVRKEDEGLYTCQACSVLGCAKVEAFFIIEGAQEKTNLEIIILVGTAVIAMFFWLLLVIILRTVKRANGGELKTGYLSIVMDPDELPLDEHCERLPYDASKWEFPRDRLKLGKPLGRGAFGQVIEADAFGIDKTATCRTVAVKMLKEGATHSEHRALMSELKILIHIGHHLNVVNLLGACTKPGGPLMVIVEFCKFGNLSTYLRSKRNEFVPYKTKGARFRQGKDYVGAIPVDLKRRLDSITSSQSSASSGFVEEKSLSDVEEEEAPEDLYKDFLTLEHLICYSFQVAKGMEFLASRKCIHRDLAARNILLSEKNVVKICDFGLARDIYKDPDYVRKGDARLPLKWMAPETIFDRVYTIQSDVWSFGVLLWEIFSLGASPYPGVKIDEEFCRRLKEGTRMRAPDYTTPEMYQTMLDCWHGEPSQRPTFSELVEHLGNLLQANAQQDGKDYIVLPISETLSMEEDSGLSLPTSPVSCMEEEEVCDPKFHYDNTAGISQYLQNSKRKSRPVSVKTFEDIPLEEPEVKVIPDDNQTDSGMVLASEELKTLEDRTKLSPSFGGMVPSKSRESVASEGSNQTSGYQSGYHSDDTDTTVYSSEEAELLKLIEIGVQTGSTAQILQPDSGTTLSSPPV
In series [4] the target is Mitogen-activated protein kinase 3 (Homo sapiens) (UniProt P27361). Briefly: Inhibition of ERK1 assessed as residual activity at 5 uM.
Mitogen-activated protein kinase 3 (Homo sapiens), sequence (P27361 whole entry): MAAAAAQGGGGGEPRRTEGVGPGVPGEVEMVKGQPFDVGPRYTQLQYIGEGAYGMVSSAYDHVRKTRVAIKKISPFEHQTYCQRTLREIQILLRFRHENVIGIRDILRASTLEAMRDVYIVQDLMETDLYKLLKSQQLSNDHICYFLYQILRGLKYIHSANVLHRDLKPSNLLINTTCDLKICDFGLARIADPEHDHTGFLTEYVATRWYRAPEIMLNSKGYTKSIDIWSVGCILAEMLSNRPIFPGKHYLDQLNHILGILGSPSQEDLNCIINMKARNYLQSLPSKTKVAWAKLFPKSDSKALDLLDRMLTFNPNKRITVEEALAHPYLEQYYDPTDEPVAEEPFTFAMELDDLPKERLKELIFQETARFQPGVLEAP
In series [5] the target is Cyclin-dependent kinase 1 (Homo sapiens) (UniProt P06493). Briefly: Inhibition of CDK1 assessed as residual activity at 5 uM.
Cyclin-dependent kinase 1 (Homo sapiens), sequence (P06493 whole entry, looked up): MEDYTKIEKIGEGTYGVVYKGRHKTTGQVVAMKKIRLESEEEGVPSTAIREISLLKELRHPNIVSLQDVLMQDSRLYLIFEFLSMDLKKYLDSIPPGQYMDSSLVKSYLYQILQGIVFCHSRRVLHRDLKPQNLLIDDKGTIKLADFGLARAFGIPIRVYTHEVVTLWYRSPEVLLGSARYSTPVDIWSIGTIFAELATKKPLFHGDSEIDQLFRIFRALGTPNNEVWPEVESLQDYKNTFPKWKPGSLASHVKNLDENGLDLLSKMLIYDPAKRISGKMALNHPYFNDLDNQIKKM
Series [6] has as its target Mitogen-activated protein kinase 1 (Homo sapiens) (UniProt P28482). Briefly: Inhibition of ERK2 assessed as residual activity at 5 uM.
A short description of series [7]: Ratio of CCIC50 for human RD cells to EC50 for GSK3-beta in human RD cells.
The target of series [8] is T2, Glycogen synthase kinase-3 beta (Homo sapiens, UniProt P49841). Briefly: Inhibition of GSK3-beta assessed as residual activity at 5 uM.
Target sequence in this assay (P49841 whole entry, looked up): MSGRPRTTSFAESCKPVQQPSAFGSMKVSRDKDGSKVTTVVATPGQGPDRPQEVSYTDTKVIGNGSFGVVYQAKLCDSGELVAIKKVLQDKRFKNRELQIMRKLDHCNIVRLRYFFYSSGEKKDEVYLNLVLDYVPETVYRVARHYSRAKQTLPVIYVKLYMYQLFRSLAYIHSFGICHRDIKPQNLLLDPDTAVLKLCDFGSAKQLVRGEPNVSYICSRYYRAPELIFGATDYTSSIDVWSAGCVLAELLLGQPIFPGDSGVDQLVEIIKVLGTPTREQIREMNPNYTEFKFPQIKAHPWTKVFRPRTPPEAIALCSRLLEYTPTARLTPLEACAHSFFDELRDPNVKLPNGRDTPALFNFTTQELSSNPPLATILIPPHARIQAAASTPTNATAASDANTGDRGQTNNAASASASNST
A short description of series [9]: Inhibition of AKT assessed as residual activity at 5 uM.
For series [10], the target named is T2, Glycogen synthase kinase-3 beta. Briefly: Inhibition of GSK3-beta.
Target sequence in this assay (P49841 whole entry): as the sequence (P49841 whole entry, looked up) above
Series [11] has the same target. Briefly: Inhibition of GSK3-beta in human RD cells. It is filed as cell-based.
Target sequence in this assay (P49841 whole entry): as the sequence (P49841 whole entry, looked up) above
A short description of series [12]: Cytotoxicity against human RD cells by MTS assay. The class given is cell-based. The settings on record: read-out: CCIC50. (In general: Tetrazolium assays rely on reduction of a dye to a coloured formazan, in cell work by metabolically active cells.)
For series [13], the target named is T2, Glycogen synthase kinase-3 beta. Briefly: Inhibition of GSK3-beta in human RD cells assessed as glycogen synthase activation measured after 24 hrs under serum starving condition. The class given is cell-based.
Target sequence in this assay (P49841 whole entry): as the sequence (P49841 whole entry, looked up) above

pEC50, pIC50: −log10 of the molar value.

Mitogen-activated protein kinase 1 (Homo sapiens), sequence (P28482 whole entry): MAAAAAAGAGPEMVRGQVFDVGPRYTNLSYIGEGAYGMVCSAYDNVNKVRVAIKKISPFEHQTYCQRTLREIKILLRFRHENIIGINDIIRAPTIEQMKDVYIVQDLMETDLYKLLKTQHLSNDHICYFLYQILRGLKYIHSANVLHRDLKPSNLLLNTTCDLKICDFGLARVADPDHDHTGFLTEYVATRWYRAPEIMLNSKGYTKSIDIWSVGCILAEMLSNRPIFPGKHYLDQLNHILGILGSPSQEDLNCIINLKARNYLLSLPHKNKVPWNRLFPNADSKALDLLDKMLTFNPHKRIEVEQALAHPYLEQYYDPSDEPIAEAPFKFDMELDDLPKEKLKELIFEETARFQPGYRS
Cyclin-dependent kinase 4 (Homo sapiens), sequence (P11802 whole entry): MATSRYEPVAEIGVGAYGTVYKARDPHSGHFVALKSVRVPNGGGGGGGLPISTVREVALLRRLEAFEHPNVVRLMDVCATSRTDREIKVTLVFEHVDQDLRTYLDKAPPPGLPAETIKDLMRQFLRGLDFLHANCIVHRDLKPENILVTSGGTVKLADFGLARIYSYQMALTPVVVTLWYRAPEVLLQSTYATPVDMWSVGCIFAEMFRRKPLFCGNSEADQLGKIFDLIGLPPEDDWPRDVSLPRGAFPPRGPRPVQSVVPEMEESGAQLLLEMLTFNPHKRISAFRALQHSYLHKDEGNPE

In the case of `O=C(O)COc1cccc(CCCNC(=O)c2ccc(O)c3[nH]c(-c4ccc(Cl)cc4)nc23)c1`, the Activity in series [1] was found to be 87.3%; in series [2] it was 58.6%; in series [3], 54.5%; in [4] it was 80%; in series [5], 90.9%; in [6], 104%. Further, the Activity is 0.3% in series [8] and 100% in series [9]. In series [7], the Ratio came out at 68.

The compound `Cc1cn(CCCNC(=O)c2ccc(O)c3[nH]c(-c4cccs4)nc23)cn1` had a pIC50 in [10] of 7.30. The compound also showed a pEC50 in series [11] of 6.51. Further, the CC50 in series [12] was greater than 100 µM. In series [7], the Ratio is greater than 322.

In series [10], `CS(=O)(=O)Nc1ccc(CCNC(=O)c2ccc(O)c3nc(-c4ccncc4)[nH]c23)cc1` showed a pIC50 of 6.96. In series [11], this compound had a pEC50 of 4.60.

Compound `CS(=O)(=O)Nc1ccc(CCNC(=O)c2ccc(O)c3[nH]c(-c4ccc(F)cc4)nc23)cc1` had a pEC50 in [11] of 6.40.

As for `Cc1nc2c(O)ccc(C(=O)NCCc3ccc(NS(C)(=O)=O)cc3)c2[nH]1`, the pEC50 in series [11] was 4.68.

Turning to `O=C(NCCCn1cnc(Cl)c1Cl)c1ccc(O)c2nc(-c3ccco3)[nH]c12`, in series [10], the pIC50 is 8.00. The pEC50 in series [11] is 7.30; in series [13] it was 7.40. The CC50 in [12] is 70 µM.

As for `CCCCNC(=O)c1ccc(O)c2[nH]c(Cc3ccccc3)nc12`, the Activity in [8] stood at 63%.

As for `O=C(NCCCn1cnc(Cl)c1Cl)c1ccc(O)c2[nH]c(-c3ccc(Cl)cc3Cl)nc12`, the Activity in [1] was found to be 80.7%; in series [2] it was 74.9%; in series [3], 109%; in [4], 97.9%; in series [6] it was 102%; in series [8] it was 0%. The Ratio in series [7] stood at 545.

For `CS(=O)(=O)Nc1ccc(CCNC(=O)c2ccc(O)c3[nH]c(Cc4ccccc4)nc23)cc1`, in [10], the negative-log IC50 (pIC50) is 5.80. This compound also gave a pEC50 in series [11] of 5.41. Besides, the Activity in series [8] stood at 18%.

Regarding `O=C(NCCc1ccc([N+](=O)[O-])cc1)c1ccc(O)c2[nH]c(Cc3ccccc3)nc12`, in series [8], the Activity amounted to 32%.

Consider `CS(=O)(=O)Nc1ccc(CCNC(=O)c2ccc(O)c3nc(-c4ccc(F)cc4F)[nH]c23)cc1`, for which the pEC50 in series [11] is 6.24; in series [13], 7.89.

`CS(=O)(=O)Nc1ccc(CCNC(=O)c2ccc(O)c3[nH]c(-c4ccc(F)cc4Cl)nc23)cc1` showed a pIC50 in series [10] of 7.70. Also, the pEC50 in series [11] was 6.64.

Take `Cc1ccc(S(=O)(=O)Nc2ccc(CCNC(=O)c3ccc(O)c4[nH]c(-c5ccc(F)cc5)nc34)cc2)cc1`: the pEC50 in series [11] is 7.02. The CC50 in series [12] was 17.5 µM. Moreover, the Ratio in series [7] was determined as 184.

Turning to `CS(=O)(=O)Nc1ccc(CCNC(=O)c2ccc(O)c3[nH]c(C4CCCC4)nc23)cc1`, in [10], the pIC50 is 7.36. In addition, the pEC50 in series [11] is 5.57.

The compound `Cc1ccc(S(=O)(=O)Nc2ccc(CCNC(=O)c3ccc(O)c4[nH]c(Cc5ccccc5)nc34)cc2)cc1` showed a pIC50 in series [10] of 5.55. For the same compound, in series [8], the Activity came out at 36%.

Compound `CCN1CCN(C(=O)c2ccc(CCNC(=O)c3ccc(O)c4nc(-c5cccs5)[nH]c34)cc2)CC1` had a pIC50 in series [10] of 7.34. The compound further showed a pEC50 in [11] of 6.40. Moreover, the CC50 in series [12] is 51 µM.

Consider `O=C(NCc1cccc(O)c1)c1ccc(O)c2[nH]c(Cc3ccccc3)nc12`, for which, in series [8], the Activity turned out to be 53%.

On to `O=C(NCCCn1cnc(Cl)c1Cl)c1ccc(O)c2[nH]c(-c3ccco3)nc12`, for which the Activity in series [1] was 74.7%; in series [2], 38.6%; in series [3], 83.6%; in series [4] it was 53.9%; in series [5], 65.2%; in series [6], 70.6%. The Activity in series [8] was -1.7%; in [9], 92.3%. Moreover, the Ratio in series [7] was found to be 1400.

Regarding `CS(=O)(=O)Nc1ccc(CCNC(=O)c2ccc(O)c3[nH]c(-c4ccc(Cl)cc4)nc23)cc1`, in series [10], the pIC50 is 8.15. This compound also gave a pEC50 in series [11] of 6.92. The CC50 in series [12] was found to be 28 µM. The Ratio in series [7] came out at 233.

As for `CS(=O)(=O)Nc1ccc(CCNC(=O)c2ccc(O)c3[nH]c(-c4ccc(F)cc4F)nc23)cc1`, the Activity in series [1] is 93.1%; in [2], 49.2%; in [3], 114%; in series [4] it was 73.4%; in series [6], 91.4%; in [8] it was -0.58%.

Turning to `O=C(NCCCn1cnc(Cl)c1Cl)c1ccc(O)c2nc(-c3ccc(Cl)cc3Cl)[nH]c12`, in series [10], the pIC50 was 8.22. Further, the pEC50 in [11] is 6.96; in [13], 6.77. For the same compound, the CC50 in [12] was determined as 60 µM.

Turning to `O=C(NCCCn1ccnc1)c1ccc(O)c2[nH]c(-c3ccc(F)c(Cl)c3)nc12`, the Activity was found to be 80% in [1]; 52.4% in series [2]; 85.3% in [3]; 66.5% in [4]; 71.3% in [5]; 76% in series [6]. Moreover, the Activity worked out at 1% in series [8] and 83.9% in [9]. Further, the Ratio in series [7] is listed as greater than 204.

In series [10], `O=C(NCCc1ccc([N+](=O)[O-])cc1)c1ccc(O)c2nc(Cc3ccccc3)[nH]c12` gave a pIC50 of 5.70.

In series [10], `O=C(O)COc1cccc(CCCNC(=O)c2ccc(O)c3nc(-c4ccc(Cl)cc4)[nH]c23)c1` showed a pIC50 of 7.51. Also, the pEC50 in series [11] was 6.60; in [13], 7.10. The CC50 in series [12] came out at 17 µM.

`CCN1CCN(C(=O)c2ccc(CCNC(=O)c3ccc(O)c4[nH]c(-c5cccs5)nc34)cc2)CC1`: the Activity in series [1] came out at 72.7%; in [2], 68.2%; in [3], 60.8%; in series [4], 80.9%; in series [5] it was 70.4%; in [6], 80.7%. For the same compound, the Activity in series [8] worked out at 0.9%; in [9], 96%. For the same compound, the Ratio in series [7] worked out at 127.

In series [10], `O=C(NCCCn1ccnc1)c1ccc(O)c2[nH]c(-c3ccc(Cl)cc3Cl)nc12` showed a pIC50 of 7.82. Also, the pEC50 in [11] is 6.62. The CC50 in series [12] came to 45 µM. In addition, the Ratio in [7] is 187.

With `NC(=O)c1ccc(O)c2[nH]c(Cc3ccccc3)nc12`, in [8], the Activity is 75%.

For `O=C(NCCCn1ccnc1)c1ccc(O)c2nc(-c3ccc(F)c(Cl)c3)[nH]c12`, the values for the pEC50 in series [11] and in series [13] were 6.31 and 7.00, respectively. The CC50 in series [12] was greater than 100 µM.

`O=C(NCCCn1cnc(Cl)c1Cl)c1ccc(O)c2[nH]c(-c3cccs3)nc12`: in [10], the negative-log IC50 (pIC50) was 8.10. This compound had a negative-log EC50 (pEC50) in series [11] of 7.47. The CC50 in [12] was greater than 100 µM. Also, in series [7], the Ratio is greater than 2941.

For the compound `CS(=O)(=O)Nc1ccc(CCNC(=O)c2ccc(O)c3nc(C4CC4)[nH]c23)cc1`, the pIC50 in series [10] was 6.85. In series [11], the pEC50 is 5.32.
